For data set [1] the following is noted: in the presence of light; cited from earlier work.
The conditions of data set [2]: in the silicone adhesive of this invention.
The conditions of data set [3]: cited from earlier work.

Read-outs that look alike come from different tables or passages of the source.

On to Polyhexamethylene biguanide [PHMB], for which, in data set [1], the “pH range of stability” value is on record as 4-10 pH. In data set [1], the “temperature up to which stable” value was “up to 80 °C”. Moreover, the stability to autoclaving entry in data set [2] (autoclaving at 121° C.) is “stable”. The “stability to curing temperature” value in data set [2] (curing temperature of 140° C.) is reported as “stable”. Also, the solubility result in data set [3] (in oils and hydrocarbons and silicone elastomers) is “not soluble”; in data set [3] (in water, alcohols and glycols) it was “soluble”.

Values taken from US20200338229A1, “ANTIMICROBIAL ADHESIVE DRESSINGS” (priority 2015, published 2020).
